Measured values from ChEMBL document CHEMBL1201862, “PubChem BioAssay data set” (2004).
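Values below derive from 48-hour exposures of cells grown in 96-well plates, with endpoints linearly interpolated between the two concentrations bracketing the appropriate inhibition level. GI50 = concentration required for 50% inhibition of growth.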 Activity calls are given as the source filed them. No stated cut-off is given here; in the data, active = GI50 up to about 1.1 µM and inactive = higher.

Experiments:
Assay in all cases: DTP human tumour cell line panel, 48 h
KM-20L2 = test system: KM-20L2
XF498 = test system: XF498
HOP-18 = test system: HOP-18
DMS-273 = test system: DMS-273
M19-MEL = test system: M19-MEL
RXF 631 = test system: RXF 631
DLD-1 = test system: DLD-1
DMS-114 = test system: DMS-114
SNB-78 = test system: SNB-78

Compound | GI50 (KM-20L2) | GI50 (XF498) | GI50 (HOP-18) | GI50 (DMS-273) | GI50 (M19-MEL) | GI50 (RXF 631) | GI50 (DLD-1) | GI50 (DMS-114) | GI50 (SNB-78)
C=CCNC(=O)NCCCC(NC(C)=O)C(=O)NCc1ccccc1 (stereo unspecified) | > 100 µM (inactive) | > 100 µM (inactive) | > 100 µM (inactive) | > 100 µM (inactive) | > 100 µM (inactive) | > 100 µM (inactive) | – | – | –
O=C1/C(=C(\Nc2ccccc2)c2ccccc2)C=NN1c1ccccc1 | > 100 µM (inactive) | > 100 µM (inactive) | < 0.01 µM (active) | 61.8 µM (inactive) | – | > 100 µM (inactive) | > 100 µM (inactive) | 50.6 µM (inactive) | > 100 µM (inactive)
O=C(Nc1cccc(C(F)(F)F)c1)C(=O)C(C(=O)c1ccc2ccccc2c1)C1OC(=O)c2ccccc21 (stereo unspecified) | 15.8 µM (inactive) | 0.887 µM (active) | – | 6.3 µM (inactive) | 8.51 µM (inactive) | – | 6.35 µM (inactive) | 6.89 µM (inactive) | 7.45 µM (inactive)
COC(=O)C(=O)C(C(=O)C=C(C)C)C(=O)C(=O)Nc1nc2ccc([N+](=O)[O-])cc2s1 (stereo unspecified) | > 100 µM (inactive) | – | 4.51 µM (inactive) | 47.6 µM (inactive) | > 100 µM (inactive) | – | 51.8 µM (inactive) | 31.4 µM (inactive) | 58.2 µM (inactive)
OCCCNc1ccnc2cc(Cl)ccc12 | > 100 µM (inactive) | > 100 µM (inactive) | > 100 µM (inactive) | – | > 100 µM (inactive) | – | > 100 µM (inactive) | > 100 µM (inactive) | > 100 µM (inactive)
Nc1c(-c2ccc(Cl)cc2Cl)[n+]([O-])c2ccccc2[n+]1[O-] | > 100 µM (inactive) | > 100 µM (inactive) | 76 µM (inactive) | > 100 µM (inactive) | > 100 µM (inactive) | > 100 µM (inactive) | > 100 µM (inactive) | > 100 µM (inactive) | > 100 µM (inactive)
c1cnc2c(c1)-n1cccc1C1(CCCCC1)NN2 | – | 74.3 µM (inactive) | 8.18 µM (inactive) | 46.5 µM (inactive) | – | – | – | 53.1 µM (inactive) | –
COc1cc2c(c(OC)c1O)-c1ccc(SC)c(=O)cc1C(NC(C)=O)CC2 (stereo unspecified) | 0.0129 µM (active) | – | – | < 0.01 µM (active) | < 0.01 µM (active) | – | 0.0597 µM (active) | < 0.01 µM (active) | < 0.01 µM (active)
CC(=O)OC1(C(C)=O)CC2(c3ccccc3)OC1(c1ccccc1)c1ccccc12 (stereo unspecified) | 8.59 µM (inactive) | 5.51 µM (inactive) | 42.5 µM (inactive) | 5.08 µM (inactive) | 9.77 µM (inactive) | 16.9 µM (inactive) | 8.34 µM (inactive) | 3.21 µM (inactive) | 31.7 µM (inactive)
NCCCOCC(=O)O | > 100 µM (inactive) | – | – | > 100 µM (inactive) | > 100 µM (inactive) | – | – | > 100 µM (inactive) | > 100 µM (inactive)
CC(C)(CN1CCCCC1)C(=O)CC(SCCS(=O)(=O)O)c1ccc(Br)cc1 (stereo unspecified) | 1.58 µM (inactive) | 0.562 µM (active) | 0.832 µM (active) | 1.65 µM (inactive) | 1.66 µM (inactive) | – | 1.67 µM (inactive) | 1.75 µM (inactive) | 4.46 µM (inactive)
Cc1ccc(-c2cc(-c3ccco3)c(C#N)c(O)n2)cc1 | > 100 µM (inactive) | – | 13.3 µM (inactive) | > 100 µM (inactive) | > 100 µM (inactive) | – | > 100 µM (inactive) | – | > 100 µM (inactive)
OCC(O)COc1c(Cl)ccc(Cl)c1Cl (stereo unspecified) | > 100 µM (inactive) | > 100 µM (inactive) | > 100 µM (inactive) | > 100 µM (inactive) | > 100 µM (inactive) | – | > 100 µM (inactive) | > 100 µM (inactive) | > 100 µM (inactive)
CC(=O)Nc1ccc(/C=C/C(=O)c2sc(C(N)=S)nc2C)cc1 | > 100 µM (inactive) | – | > 100 µM (inactive) | > 100 µM (inactive) | > 100 µM (inactive) | – | > 100 µM (inactive) | > 100 µM (inactive) | > 100 µM (inactive)
CCOC(=O)c1sc2c(sc(=O)n2-c2ccccc2)c1O | > 100 µM (inactive) | > 100 µM (inactive) | > 100 µM (inactive) | 29.4 µM (inactive) | > 100 µM (inactive) | 58.6 µM (inactive) | 46.3 µM (inactive) | 98.9 µM (inactive) | > 100 µM (inactive)
CN(C)CCNC(=O)c1cccc2ccc(-c3ccc(O)cc3)nc12 | 6.68 µM (inactive) | – | 2.81 µM (inactive) | 0.743 µM (active) | 1.9 µM (inactive) | – | 2.47 µM (inactive) | 2.08 µM (inactive) | 4.43 µM (inactive)
O=C(O)[C@@H](NS(=O)(=O)c1ccc2ccccc2c1)c1ccccc1 | > 100 µM (inactive) | 75.5 µM (inactive) | > 100 µM (inactive) | > 100 µM (inactive) | > 100 µM (inactive) | > 100 µM (inactive) | > 100 µM (inactive) | – | –
CC(=O)O[C@H]1C(N(C)C(=O)c2ccccc2)CC[C@]2(C)C3CC[C@@]4(C)C(CC(O)[C@@H]4C(C)N(C)C)[C@@H]3CCC12 (stereo partly specified) | > 100 µM (inactive) | > 100 µM (inactive) | > 100 µM (inactive) | > 100 µM (inactive) | > 100 µM (inactive) | – | > 100 µM (inactive) | > 100 µM (inactive) | > 100 µM (inactive)
CCN(CC)CCn1c2ccccc2c(=O)c2c(O)ccc(O)c21 | > 100 µM (inactive) | 21.6 µM (inactive) | – | 99.1 µM (inactive) | – | > 45.7 µM (inactive) | – | 18.5 µM (inactive) | 23.4 µM (inactive)
Cc1ccc(S(=O)(=O)c2c(N)n(CCN(C)C)c3nc4ccccc4nc23)cc1 | – | > 100 µM (inactive) | > 100 µM (inactive) | > 100 µM (inactive) | > 100 µM (inactive) | – | > 100 µM (inactive) | > 100 µM (inactive) | > 100 µM (inactive)
Cc1cc2c(s1)C(=O)c1sccc1C2=O | 2.46 µM (inactive) | 1.55 µM (inactive) | 1.48 µM (inactive) | 1.24 µM (inactive) | – | – | 1.64 µM (inactive) | – | –
